The source made the active and inactive calls. The rule behind the calls is not given here.
Test system: 3C-like protease (3CLpro), SARS coronavirus
Assay: SARS 3CLpro protease inhibitors, late-stage follow-up, biochemical, fluorescence, single concentration, set 4 (AID 588772)
Details: recombinant 3CLpro, fluorogenic substrate cleavage; at 100 µM; hits give high values

| SMILES | inhibition |
| --- | --- |
| CC(C)(C)NC(=O)C(c1cnccn1)N(C(=O)c1ccco1)c1ccc(C(C)(C)C)cc1 (stereo not drawn) | 96.2% |
| CC(C)(C)NC(=O)C(c1cccnc1)N(C(=O)c1ccco1)c1ccc(-c2cccn2C(=O)OC(C)(C)C)cc1 (stereo not drawn) | 56.9% |
| Cc1ccc(C(C(=O)NC(C)(C)C)N(C(=O)c2ccco2)c2ccc(C(C)(C)C)cc2)cn1 (stereo not drawn) | -4.1% (inactive) |
| CC(C)(C)NC(=O)C(c1cccnc1)N(C(=O)c1ccco1)c1ccc(-c2cccnc2)cc1 (stereo not drawn) | 64.1% |
| CC(C)(C)NC(=O)C(c1cccnc1)N(C(=O)c1cc2ccccc2o1)c1ccc(C(C)(C)C)cc1 (stereo not drawn) | 14.3% (inactive) |
| CC(C)(C)NC(=O)C(c1cn[nH]n1)N(C(=O)c1ccco1)c1ccc(C(C)(C)C)cc1 (stereo not drawn) | 22.7% (inactive) |
| Cn1cnc(C(=O)N(c2ccc(C(C)(C)C)cc2)C(C(=O)NC(C)(C)C)c2cccnc2)c1 (stereo not drawn) | 51.3% |
| CC(C)(C)NC(=O)C(c1cccnc1)N(C(=O)c1ccco1)c1ccc(OCc2ccccc2)cc1 (stereo not drawn) | 53.2% |
| CC(C)(C)NC(=O)C(c1cccnc1)N(C(=O)c1ccc(C(F)(F)F)o1)c1ccc(C(C)(C)C)cc1 (stereo not drawn) | 17.8% (inactive) |
| CC(C)(C)NC(=O)C(c1ccccn1)N(C(=O)c1ccco1)c1ccc(C(C)(C)C)cc1 (stereo not drawn) | 0.7% (inactive) |
| CC(C)(C)NC(=O)C(c1ccncc1)N(C(=O)c1ccco1)c1ccc(C(C)(C)C)cc1 (stereo not drawn) | 60.2% |
| CC(C)(C)NC(=O)C(c1cccnc1)N(C(=O)c1ccco1)c1ccc(Cc2ccccc2)cc1 (stereo not drawn) | 77.6% |
| CC(C)(C)NC(=O)[C@H](c1cccnc1)N(C(=O)c1cnc[nH]1)c1ccc(C(C)(C)C)cc1 | 97.6% |
| CC(C)(C)c1ccc(N(Cc2cccnc2)C(=O)c2cnc[nH]2)cc1 | 46.8% (inactive) |
| CC(C)(C)NC(=O)C(c1cccnc1)N(C(=O)c1ccco1)c1ccc(-c2cccc(F)c2F)cc1 (stereo not drawn) | 90.2% |
| CC(C)(C)NC(=O)C(c1ccn[nH]1)N(C(=O)c1ccco1)c1ccc(C(C)(C)C)cc1 (stereo not drawn) | 6.3% (inactive) |
| CC(C)(C)NC(=O)C(c1cnc[nH]1)N(C(=O)c1ccco1)c1ccc(C(C)(C)C)cc1 (stereo not drawn) | 22.8% (inactive) |
| CC(C)(C)NC(=O)C(c1cccnc1)N(C(=O)c1ccco1)c1ccc(-c2ccccc2)cc1 (stereo not drawn) | 94.8% |
| CC(C)(C)NC(=O)C(c1cccnc1)N(C(=O)c1ccco1)c1ccc(-c2cncnc2)cc1 (stereo not drawn) | 48.6% (inactive) |
| CC(C)(C)NC(=O)[C@@H](c1cccnc1)N(C(=O)c1cnc[nH]1)c1ccc(C(C)(C)C)cc1 | 47.1% (inactive) |
| CC(C)(C)NC(=O)C(c1cccnc1)N(C(=O)c1ccco1)c1ccc(-c2ccnc(F)c2)cc1 (stereo not drawn) | 40.3% (inactive) |
| CC(C)(C)NC(=O)C(c1ccnnc1)N(C(=O)c1ccco1)c1ccc(C(C)(C)C)cc1 (stereo not drawn) | 94.3% |
| COc1cccc(Oc2ccc(N(C(=O)c3ccco3)C(C(=O)NC(C)(C)C)c3cccnc3)cc2)c1 (stereo not drawn) | 52% |
| Cc1noc(C)c1-c1ccc(N(C(=O)c2ccco2)C(C(=O)NC(C)(C)C)c2cccnc2)cc1 (stereo not drawn) | 85.1% |
| CC(C)(C)NC(=O)C(c1cn[nH]c1)N(C(=O)c1ccco1)c1ccc(C(C)(C)C)cc1 (stereo not drawn) | 16.1% (inactive) |
| CC(C)(C)NC(=O)C(c1cccnc1)N(C(=O)c1ccco1)c1ccc(Oc2ccccc2)cc1 (stereo not drawn) | 40.9% (inactive) |
| CC(C)(C)NC(=O)C(c1cccnc1)N(C(=O)c1ccco1)c1ccc(-c2ccncc2)cc1 (stereo not drawn) | 27.8% (inactive) |
| CC(C)(C)NC(=O)C(c1cccnc1)N(C(=O)c1ccco1)c1ccc(I)cc1 (stereo not drawn) | 66.3% |
